{
  "source": "ChEMBL document CHEMBL1201862",
  "about": "“PubChem BioAssay data set” (2004)",
  "experiment_in_all_cases": "inhibition of tumour cell growth, NCI panel, 48 h",
  "key": {"HT-29": {"system": "HT-29"}, "SN12C": {"system": "SN12C"}, "SF-268": {"system": "SF-268"}, "U-251": {"system": "U-251"}, "SF-295": {"system": "SF-295"}, "KM12": {"system": "KM12"}, "OVCAR-4": {"system": "OVCAR-4"}, "SK-MEL-2": {"system": "SK-MEL-2"}, "A549": {"system": "A549"}, "LOX IMVI": {"system": "LOX IMVI"}, "HCT-15": {"system": "HCT-15"}, "OVCAR-5": {"system": "OVCAR-5"}, "ACHN": {"system": "ACHN"}, "SK-MEL-5": {"system": "SK-MEL-5"}, "CAKI-1": {"system": "CAKI-1"}, "DMS-273": {"system": "DMS-273"}, "HOP-62": {"system": "HOP-62"}, "M19-MEL": {"system": "M19-MEL"}, "NCI-H226": {"system": "NCI-H226"}, "SW-620": {"system": "SW-620"}, "EKVX": {"system": "EKVX"}, "MOLT-4": {"system": "MOLT-4"}, "SNB-75": {"system": "SNB-75"}, "SNB-78": {"system": "SNB-78"}, "SK-MEL-28": {"system": "SK-MEL-28"}, "SK-OV-3": {"system": "SK-OV-3"}, "HCC 2998": {"system": "HCC 2998"}, "K562": {"system": "K562"}, "CCRF-CEM": {"system": "CCRF-CEM"}, "COLO 205": {"system": "COLO 205"}, "TK-10": {"system": "TK-10"}, "OVCAR-8": {"system": "OVCAR-8"}, "DMS-114": {"system": "DMS-114"}, "M14": {"system": "M14"}, "NCI-H23": {"system": "NCI-H23"}, "HOP-92": {"system": "HOP-92"}, "SNB-19": {"system": "SNB-19"}, "HOP-18": {"system": "HOP-18"}, "HCT-116": {"system": "HCT-116"}, "HL-60": {"system": "HL-60"}, "UACC-62": {"system": "UACC-62"}, "UO-31": {"system": "UO-31"}, "UACC-257": {"system": "UACC-257"}, "A498": {"system": "A498"}, "IGROV-1": {"system": "IGROV-1"}, "786-0": {"system": "786-0"}, "SF-539": {"system": "SF-539"}, "OVCAR-3": {"system": "OVCAR-3"}, "KM-20L2": {"system": "KM-20L2"}, "BT-549": {"system": "BT-549"}, "NCI-H460": {"system": "NCI-H460"}, "MDA-N": {"system": "MDA-N"}, "DLD-1": {"system": "DLD-1"}, "T47D": {"system": "T47D"}, "DU-145": {"system": "DU-145"}, "NCI/ADR-RES": {"system": "NCI/ADR-RES"}, "SR": {"system": "SR"}, "MDA-MB-435": {"system": "MDA-MB-435"}, "PC-3": {"system": "PC-3"}, "Hs-578T": {"system": "Hs-578T"}},
  "note": "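Results reflect a 48-hour exposure of cells in 96-well plates to compound at five concentrations. The concentration for 50% growth inhibition is given as GI50.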 The source made the active and inactive calls. No stated cut-off is given here; in the data, active = GI50 up to about 1.1 µM and inactive = higher.",
  "data": [
    {"compound": "COc1ccc2nc3c(C(=O)NCCN(C)C)cccc3nc2c1", "values": [
      {"measurement": "GI50", "setting": "HT-29", "value": "4.17 µM (inactive)"},
      {"measurement": "GI50", "setting": "SN12C", "value": "3.41 µM (inactive)"},
      {"measurement": "GI50", "setting": "SF-268", "value": "7.36 µM (inactive)"},
      {"measurement": "GI50", "setting": "U-251", "value": "5 µM (inactive)"},
      {"measurement": "GI50", "setting": "SF-295", "value": "6.41 µM (inactive)"},
      {"measurement": "GI50", "setting": "KM12", "value": "5.98 µM (inactive)"},
      {"measurement": "GI50", "setting": "OVCAR-4", "value": "6.58 µM (inactive)"},
      {"measurement": "GI50", "setting": "SK-MEL-2", "value": "6.21 µM (inactive)"},
      {"measurement": "GI50", "setting": "A549", "value": "4.28 µM (inactive)"},
      {"measurement": "GI50", "setting": "LOX IMVI", "value": "3.34 µM (inactive)"},
      {"measurement": "GI50", "setting": "HCT-15", "value": 3930, "unit": "nM"},
      {"measurement": "GI50", "setting": "OVCAR-5", "value": "11.2 µM (inactive)"},
      {"measurement": "GI50", "setting": "ACHN", "value": "3.94 µM (inactive)"},
      {"measurement": "GI50", "setting": "SK-MEL-5", "value": "4.31 µM (inactive)"},
      {"measurement": "GI50", "setting": "CAKI-1", "value": "3.75 µM (inactive)"},
      {"measurement": "GI50", "setting": "DMS-273", "value": "4.42 µM (inactive)"},
      {"measurement": "GI50", "setting": "HOP-62", "value": "7.23 µM (inactive)"},
      {"measurement": "GI50", "setting": "M19-MEL", "value": "5.05 µM (inactive)"},
      {"measurement": "GI50", "setting": "NCI-H226", "value": "6.85 µM (inactive)"},
      {"measurement": "GI50", "setting": "SW-620", "value": "3.1 µM (inactive)"},
      {"measurement": "GI50", "setting": "EKVX", "value": "3.86 µM (inactive)"},
      {"measurement": "GI50", "setting": "MOLT-4", "value": "3.63 µM (inactive)"},
      {"measurement": "GI50", "setting": "SNB-75", "value": "7.35 µM (inactive)"},
      {"measurement": "GI50", "setting": "SNB-78", "value": "7.16 µM (inactive)"},
      {"measurement": "GI50", "setting": "SK-MEL-28", "value": "8.3 µM (inactive)"},
      {"measurement": "GI50", "setting": "SK-OV-3", "value": "9.04 µM (inactive)"},
      {"measurement": "GI50", "setting": "HCC 2998", "value": "6.76 µM (inactive)"},
      {"measurement": "GI50", "setting": "K562", "value": "5 µM (inactive)"},
      {"measurement": "GI50", "setting": "CCRF-CEM", "value": "5.55 µM (inactive)"},
      {"measurement": "GI50", "setting": "COLO 205", "value": "4.28 µM (inactive)"},
      {"measurement": "GI50", "setting": "TK-10", "value": "3.37 µM (inactive)"},
      {"measurement": "GI50", "setting": "OVCAR-8", "value": "5.16 µM (inactive)"},
      {"measurement": "GI50", "setting": "DMS-114", "value": "5.82 µM (inactive)"},
      {"measurement": "GI50", "setting": "M14", "value": "5.56 µM (inactive)"},
      {"measurement": "GI50", "setting": "NCI-H23", "value": "4.73 µM (inactive)"},
      {"measurement": "GI50", "setting": "HOP-92", "value": "4.34 µM (inactive)"},
      {"measurement": "GI50", "setting": "SNB-19", "value": "6.21 µM (inactive)"},
      {"measurement": "GI50", "setting": "HOP-18", "value": "27.7 µM (inactive)"},
      {"measurement": "GI50", "setting": "HCT-116", "value": "3.32 µM (inactive)"},
      {"measurement": "GI50", "setting": "HL-60", "value": "4.23 µM (inactive)"},
      {"measurement": "GI50", "setting": "UACC-62", "value": "5.55 µM (inactive)"},
      {"measurement": "GI50", "setting": "UO-31", "value": "4.89 µM (inactive)"},
      {"measurement": "GI50", "setting": "UACC-257", "value": "3.91 µM (inactive)"},
      {"measurement": "GI50", "setting": "A498", "value": "1.84 µM (inactive)"},
      {"measurement": "GI50", "setting": "IGROV-1", "value": "5.61 µM (inactive)"},
      {"measurement": "GI50", "setting": "786-0", "value": "7 µM (inactive)"},
      {"measurement": "GI50", "setting": "SF-539", "value": "2.51 µM (inactive)"},
      {"measurement": "GI50", "setting": "OVCAR-3", "value": "10.2 µM (inactive)"}
    ]},
    {"compound": "CNCCNc1ccc2c3c(nn2CCNCCO)-c2c(O)ccc(O)c2C(=O)c13", "values": [
      {"measurement": "GI50", "setting": "HT-29", "value": "0.378 µM (active)"},
      {"measurement": "GI50", "setting": "KM-20L2", "value": "550 nM (active)"},
      {"measurement": "GI50", "setting": "SN12C", "value": "0.0397 µM (active)"},
      {"measurement": "GI50", "setting": "SF-268", "value": "0.0601 µM (active)"},
      {"measurement": "GI50", "setting": "SF-295", "value": "0.0681 µM (active)"},
      {"measurement": "GI50", "setting": "KM12", "value": "0.211 µM (active)"},
      {"measurement": "GI50", "setting": "A549", "value": "0.0597 µM (active)"},
      {"measurement": "GI50", "setting": "HCT-15", "value": 1720, "unit": "nM"},
      {"measurement": "GI50", "setting": "BT-549", "value": "109 nM (active)"},
      {"measurement": "GI50", "setting": "OVCAR-5", "value": "0.468 µM (active)"},
      {"measurement": "GI50", "setting": "NCI-H460", "value": "13.9 nM (active)"},
      {"measurement": "GI50", "setting": "MDA-N", "value": "966 nM (active)"},
      {"measurement": "GI50", "setting": "CAKI-1", "value": "0.101 µM (active)"},
      {"measurement": "GI50", "setting": "DLD-1", "value": "1.26 µM (inactive)"},
      {"measurement": "GI50", "setting": "HOP-62", "value": "0.0179 µM (active)"},
      {"measurement": "GI50", "setting": "T47D", "value": "635 nM (active)"},
      {"measurement": "GI50", "setting": "NCI-H226", "value": "0.0227 µM (active)"},
      {"measurement": "GI50", "setting": "SW-620", "value": "0.273 µM (active)"},
      {"measurement": "GI50", "setting": "DU-145", "value": "71.3 nM (active)"},
      {"measurement": "GI50", "setting": "NCI/ADR-RES", "value": "20.8 µM (inactive)"},
      {"measurement": "GI50", "setting": "SR", "value": "51.9 nM (active)"},
      {"measurement": "GI50", "setting": "SNB-78", "value": "0.526 µM (active)"},
      {"measurement": "GI50", "setting": "MDA-MB-435", "value": "923 nM (active)"},
      {"measurement": "GI50", "setting": "HCC 2998", "value": "0.2 µM (active)"},
      {"measurement": "GI50", "setting": "DMS-114", "value": "0.0575 µM (active)"},
      {"measurement": "GI50", "setting": "NCI-H23", "value": "0.111 µM (active)"},
      {"measurement": "GI50", "setting": "HOP-92", "value": "0.173 µM (active)"},
      {"measurement": "GI50", "setting": "PC-3", "value": "535 nM (active)"},
      {"measurement": "GI50", "setting": "HOP-18", "value": "0.508 µM (active)"},
      {"measurement": "GI50", "setting": "HCT-116", "value": "0.346 µM (active)"},
      {"measurement": "GI50", "setting": "Hs-578T", "value": "166 nM (active)"},
      {"measurement": "GI50", "setting": "UACC-257", "value": "1.81 µM (inactive)"},
      {"measurement": "GI50", "setting": "IGROV-1", "value": "0.454 µM (active)"},
      {"measurement": "GI50", "setting": "786-0", "value": "0.08 µM (active)"},
      {"measurement": "GI50", "setting": "OVCAR-3", "value": "1.03 µM (active)"}
    ]}
  ]
}
